{"source": "patent US20160128988A1", "about": "“COMBINATIONS FOR THE TREATMENT OF CANCER COMPRISING A MPS-1 KINASE INHIBITOR AND A MITOTIC INHIBITOR” (BAYER PHARMA AKTIENGESELLSCHAFT, priority 2013, published 2016)", "key": {"[1]": {"tested_on": "NCI-H1299 human NSCLC xenograft tumors", "protocol": "The effect of combination treatment of an Mps-1 inhibitor and paclitaxel was studied in the NCI-H1299 taxane intrinsically resistant human lung carcinoma (NSCLC) xenograft model in nude mice.\n(§1) Paclitaxel was applied intravenously once per week upon its respective MTD. Substances were formulated in optimal vehicles to achieve solutions. Animal body weight and tumor size were determined two to three times weekly. […] For combination treatment, the Compound A1 and paclitaxel were applied at the same day within a time frame of 4 hours. Animals of control and monotherapy group (Compound A1 only) were treated for a duration of 28 days. Animals of paclitaxel monotherapy and paclitaxel/Mps-1 inhibitor treatment groups were treated for a duration of 37 days. At the end of the study after one final treatment plasma and tumors were sampled for PK analysis and final tumor weight was determined.\n(§2) FIGS. 1A and 1B show the response of NCI-H1299 human NSCLC xenograft tumors to treatment with Compound A1 in combination with paclitaxel. NCI-H1299 human NSCLC tumor cells were implanted s.c. into nude mice on day 0. […] Compound A1 was administered orally (p.o.) upon 0.45 mg/kg twice daily (2QD) for 2 days on/5 days off (2 on/5 off) in monotherapy and in combination with paclitaxel. Paclitaxel was administered intravenously (i.v.) upon 20 mg/kg once daily (QD) once per week (1 on/6 off) in monotherapy and combination therapy. Tumor growth was monitored by determination of the tumor area using calliper measurement two to three times weekly. FIG. 1A: Time course of tumor growth. FIG. 1B: Time course of animal body weight change during the course of the study."}, "[2]": {"tested_on": "NCI-H1299 human NSCLC xenograft tumors", "text": "The effect of combination treatment of an Mps-1 kinase inhibitor (Compound A1) with docetaxel, another SAC activating, […], anti-mitotic agent, used as standard of care in NSCLC patients, was studied in the NCI-H1299 taxane intrinsically resistant human lung carcinoma (NSCLC) xenograft model in nude mice.\nDocetaxel was applied intravenously once per week upon its respective MTD. Substances were formulated in optimal vehicles to achieve solutions. Animal body weight and tumor size were determined two times weekly. […] For combination treatment Compound A1and docetaxel were applied at the same day within a time frame of 4 hours. Animals of control and Mps-1 kinase inhibitor monotherapy group were treated for a duration of 20 days. Animals of docetaxel monotherapy and docetaxel/Mps-1 kinase inhibitor combination treatment groups were treated for a duration of 42 days. At the end of the study after one final treatment plasma and tumors were sampled for PK analysis and final tumor weight was determined.\nas §2, with “NCI-H1299” for “FIGS. 1A and 1B show the response of NCI-H1299 human NSCLC xenograft tumors to treatment with Compound A1 in combination with paclitaxel. NCI-H1299”, “2.0” for “0.45”, “docetaxel. Docetaxel” for “paclitaxel. Paclitaxel”, “15” for “20”, “2A:” for “1A:”, “2B: Weight of tumors in docetaxel/Mps-1 kinase inhibitor combination group at the end of the study at day 52 after tumor cell inoculation. FIG. 2C:” for “1B:”", "remark": "listed apart in the source"}, "[3]": {"tested_on": "MDA-MB 231 human triple-negative breast cancer xenograft tumors", "protocol": "The effect of combination treatment of an Mps-1 kinase inhibitor (Compound A1) and paclitaxel was studied in the MDA-MB 231 human triple-negative (no expression of Her2/neu, progesterone receptor, estrogen receptor) xenograft model in nude mice.\nas §1, with “determined” for “determined two to”, “treatment,” for “treatment, the”, “paclitaxel/Mps-1 kinase” for “paclitaxel/Mps-1”, “50” for “37”\nas §2, with “MDA-MB 231” for “FIGS. 1A and 1B show the response of NCI-H1299”, “breast cancer” for “NSCLC xenograft tumors to treatment with Compound A1 in combination with paclitaxel. NCI-H1299 human NSCLC tumor”, “1” for “0.45”, “measurement” for “measurement two to”, “3A:” for “1A:”, “3B: Weight of tumors in paclitaxel/Mps-1 kinase inhibitor combination group at the end of the study at day 73 after tumor cell inoculation. FIG. 3C:” for “1B:”"}, "[4]": {"tested_on": "primary human NSCLC xenograft model LU387", "test": "Combination with paclitaxel in primary human NSCLC xenograft model LU387", "type": "in vivo, nude mice", "settings": "for mean tumor size: day 42 post treatment", "protocol": "The effect of Compound A1 and paclitaxel compared with a vehicle was evaluated in the subcutaneous primary human NSCLC xenograft model LU387 on nude mice."}, "[5]": {"tested_on": "IGR-OV1 human ovarian carcinoma model", "protocol": "Paclitaxel was administered IV QW at 50% of its respective MTD."}, "[6]": {"tested_on": "cisplatin-resistant ovarian cancer cells A2780cis", "test": "Mode of action: histopathology of A2780cis tumors after treatment", "settings": "Compound A1 single agent 2.5 mg/kg PO 2QD 2 days on/5 days off, samples 24 hours after first administration", "quoted_text": "To explain in vivo the mode of action of an Mps-1 kinase inhibitor in single-agent treatment and combination treatment with a taxane, female NMRI (Naval Medical Research Institute) nude mice were implanted with cisplatin-resistant ovarian cancer cells A2780cis.\nPaclitaxel was administered IV (intravenous(ly)) QW (once per week (meaning the 1 day on/6 days off treatment schedule)) at its MTD (24 mg/kg) in single-agent and combination treatments. […] Tumors were embedded in paraffin, sections were prepared and stained with hematoxylin & eosin for histopathological analysis."}, "[7]": {"tested_on": "MKN1 human gastric carcinoma model", "test": "Combination with paclitaxel in MKN1 human gastric carcinoma model", "settings": "Compound A1 single agent 1 mg/kg or 2.5 mg/kg (40 days); paclitaxel and combination (78 treatment days)", "quoted_text": "Compound A1 was administered PO in the 2QD intermittent (2 days on/5 days off) dosing schedule up to the respective MTD in single-agent treatment and at a dose of 40% of the single-agent MTD in combination. Paclitaxel was administered IV QW at its respective MTD. Treatment for all groups started at a tumor size of 27 mm^2, on day 7 after tumor cell inoculation. For combination treatment, Compound A1 and paclitaxel were administered on the same day within a time of 4 hours. Animals of the control and Compound A1 single-agent treatment groups were treated for 40 days. Animals of the paclitaxel single-agent and Compound A1 with paclitaxel combination treatment groups were treated for 78 days."}, "[8]": {"settings": "Compound A1 0.45 mg/kg 2QD 2on/5off p.o., paclitaxel 20 mg/kg QD 1on/6off i.v."}, "[9]": {"settings": "Compound A1 2 mg/kg 2QD 2on/5off p.o., docetaxel 15 mg/kg QD 1on/6off i.v."}}, "note": "Where two headings read alike, the source gives them in different places.", "data": [{"smiles": "COc1cc(S(C)(=O)=O)ccc1Nc1nc2ccc(-c3ccc(NC(=O)[C@H](C)c4ccc(F)cc4)cc3)cn2n1", "note": "[Compound A1]", "values": [{"measurement": "Fatal Tox", "setting": "[1]; [8]", "result": "0/10"}, {"measurement": "Max. Body weight loss (%)", "setting": "[1]; [8]", "result": "−1", "unit": "%"}, {"measurement": "anti-tumor efficacy (in words)", "setting": "[1]; Compound A1 0.45 mg/kg 2QD p.o. (28 treatment days), combination with paclitaxel 20 mg/kg i.v. (37 treatment days)", "result": "no effect on tumor growth"}, {"measurement": "T/C weight", "setting": "[1]; mean final tumor weight, Compound A1 0.45 mg/kg 2QD 2on/5off p.o.", "result": 1.34}, {"measurement": "T/C area", "setting": "[1]; relative mean tumor area, 28 treatment days, Compound A1 0.45 mg/kg 2QD 2on/5off p.o., paclitaxel 20 mg/kg QD 1on/6off i.v.", "result": 1.27}, {"measurement": "Fatal Tox", "setting": "[2]; [9]", "result": "0/8"}, {"measurement": "Max. Body weight loss (%)", "setting": "[2]; [9]", "result": "−3", "unit": "%"}, {"measurement": "anti-tumor efficacy (in words)", "setting": "[2]; Compound A1 2 mg/kg 2QD p.o. (20 treatment days), combination with docetaxel 15 mg/kg i.v. (42 treatment days)", "result": "weak efficacy"}, {"measurement": "T/C weight", "setting": "[2]; mean final tumor weight, Compound A1 2 mg/kg 2QD 2on/5off p.o.", "result": 1.01}, {"measurement": "T/C area", "setting": "[2]; relative mean tumor area, 20 treatment days, Compound A1 2 mg/kg 2QD 2on/5off p.o., docetaxel 15 mg/kg QD 1on/6off i.v.", "result": 0.89}, {"measurement": "Fatal Tox", "setting": "[3]; Compound A1 1 mg/kg 2QD 2on/5off p.o., paclitaxel 20 mg/kg QD 1on/6off i.v.", "result": "0/10"}, {"measurement": "anti-tumor efficacy (in words)", "setting": "[3]; Compound A1 1 mg/kg 2QD p.o. (28 treatment days), combination with paclitaxel 20 mg/kg i.v. (50 treatment days)", "result": "no effect on tumor growth"}, {"measurement": "tolerability (in words)", "setting": "[3]; Compound A1 1 mg/kg 2QD p.o., paclitaxel 20 mg/kg i.v.", "result": "well tolerated without critical body weight loss or toxicities"}, {"measurement": "T/C weight", "setting": "[3]; mean final tumor weight, Compound A1 1 mg/kg 2QD 2on/5off p.o.", "result": 0.92}, {"measurement": "T/C area", "setting": "[3]; relative mean tumor area, 28 treatment days, Compound A1 1 mg/kg 2QD 2on/5off p.o., paclitaxel 20 mg/kg QD 1on/6off i.v.", "result": 0.91}, {"measurement": "antitumor activity (in words)", "setting": "[4]; Compound A1 single agent 1 mg/kg and 2.5 mg/kg, combination with paclitaxel", "result": "no significant antitumor activity"}, {"measurement": "T/Cvolume", "setting": "[4]; day 42, Compound A1 2.5 mg/kg (high dose)", "result": 0.73}, {"measurement": "mean tumor size", "setting": "[4]; Compound A1 1 mg/kg PO 2QD 2 days on/5 days off over 6 weeks", "result": 1788, "unit": "mm^3"}, {"measurement": "mean tumor size", "setting": "[4]; Compound A1 2.5 mg/kg PO 2QD 2 days on/5 days off over 6 weeks", "result": 1137, "unit": "mm^3"}, {"measurement": "T/Cweight", "setting": "[5]; 38 treatment days, Compound A1 2.5 mg/kg PO 2QD 2 days on/5 days off", "result": 0.52}, {"measurement": "relative T/Carea", "setting": "[5]; 38 treatment days, Compound A1 single agent 2.5 mg/kg PO 2QD, paclitaxel 12 mg/kg IV QW, combination with Compound A1 2 mg/kg PO 2QD", "result": 0.57}, {"measurement": "anti-tumor efficacy (in words)", "setting": "[5]; Compound A1 2.5 mg/kg single agent (38 days), paclitaxel 12 mg/kg and combination with Compound A1 2 mg/kg (treatment day 38 to 59)", "result": "moderate single-agent efficacy"}, {"measurement": "tolerability (in words)", "setting": "[5]; mouse, in vivo", "result": "well tolerated without critical body weight loss or toxicities"}, {"measurement": "histopathological phenotype of tumor tissue", "setting": "[6]", "result": "induction of a pleomorphic phenotype, including multinuclearity"}, {"measurement": "anti-tumor efficacy (in words)", "setting": "[7]", "result": "no effect on tumor growth inhibition"}]}]}
